The values below come from a melting point compilation (Tetko et al.; mined from patent text by program, amines drawn as free bases though some values may be those of a salt).

SMILES strings stand for the structures.

Take `CCNC(=O)Nc1ccc(-c2sc3c(c2CN(C)C(C)C)c(=O)n(-c2ccccc2)c(=O)n3Cc2c(F)cccc2F)cc1`: the melting point (commonly the temperature, or range, at which the solid turns liquid) lay in the range of 208 to 210 °C.

As to `CCOCc1cccc2[nH]cc(C(COC)C(C(=O)OCC)[N+](=O)[O-])c12` (configuration not stated), the melting point was in the range of 118 to 120 °C.

In the case of `CCN1C(=O)C(C)(C)C(=O)N(C)c2cc(CN(CCn3c(=O)ccc4ccccc43)Cc3cnccc3C)ccc21`, the melting point was in the range of 120 to 121 °C.

The compound `O=c1[nH]nc(-c2ccc(C(F)(F)F)cc2)o1` showed a melting point of 214 to 216 °C.

The compound `CCCOc1cccc2c1OCN(CCc1ccccc1)C2` displayed a melting point of 84 °C.

For the compound `CN(CC=C(F)C(F)(F)C(F)(F)F)CCCCCC1Cc2cc(O)ccc2C2C(F)CC3(C)C(O)CCC3C12` (configuration not stated), the melting point was found to be 122 °C.

`COc1ccc([N+](=O)[O-])cc1NC(=O)CCCCC1CCSS1` (configuration not stated) showed a melting point of 117 °C.

The compound `Cc1n[nH]c2cc(-c3nn(Cc4oc5ccccc5c(=O)c4-c4cccc(F)c4)c4ncnc(N)c34)ccc12` had a melting point of 246 to 248 °C.

Compound `O=C(O)CCSC1c2ccccc2COc2ccc(OCc3ccc4cc(Cl)ccc4n3)cc21` (configuration not stated) displayed a melting point of 178 to 180 °C.

`CN(C)C(=O)Sc1ccc2ccncc2c1Cl` gave a melting point of 140 to 142 °C.

In turn, `COc1ccc2c(c1OC)CCN(Cc1ccc(-c3ccc(-c4cccc(N)n4)cc3)cc1)C2` registered a melting point of 205 to 209 °C.

Regarding `CC(CCl)CCCC(C)C1CC=C2C3=C(CCC21C)C1(C)CCC(O)C(C)(C)C1CC3` (configuration not stated), the melting point fell in the range of 145 to 146 °C.

Consider `CCOc1nc(=O)n([C@H]2CS[C@@H](CO)O2)cc1F` (relative stereo), for which the melting point fell in the range of 162 to 164 °C.

For `N#CC1c2cccc(Br)c2C=CN1C(=O)c1ccccc1` (configuration not stated), the melting point lay within 177 to 178 °C.

As to `C=CC(=N)NS(N)(=O)=O`, the melting point lay in the range of 72 to 75 °C.

The compound `CCOC(=O)C(=O)Nc1ccc2c(=O)n3c(nc2c1)C(=Cc1cccc(OC)c1OCC)CC3` displayed a melting point of 174 to 177 °C.

In turn, `CN(C)C(=O)c1ccc(-c2ccc(Cl)cc2)o1` yielded a melting point of 101 to 102 °C.

Take `CCC(=O)NC1Cc2ccccc2C(c2ccccc2)C1` (configuration not stated): the melting point was in the range of 144 to 146 °C.

Compound `CN(C)c1ccc(-c2cnc3[nH]cc(C(=O)C4(C)CCCCC4)c3n2)cc1` showed a melting point of 272 to 274 °C.

With `CN1C(=O)c2cscc2Nc2cc(Cl)c(Cl)cc21`, the melting point fell in the range of 265 to 267 °C.

Compound `O=C1c2cc(O)ccc2OCN1CCO[N+](=O)[O-]` displayed a melting point of 80 °C.

Turning to `NC(=O)CC1(c2ccccc2)C(=O)Nc2ccccc21` (configuration not stated), the melting point lay in the range of 184 to 185 °C.

`CN1C(=O)CC[C@]2(C)c3ccc(Sc4nc5c(Br)cccc5s4)cc3CC[C@@H]12` showed a melting point of 206 to 210 °C.

`Cc1ccc(-c2cn3cc(-c4cccc(COc5ccc(Cl)cc5)c4)ccc3n2)cc1` showed a melting point of 182 to 184 °C.

`COc1ccc(C[C@H]2CC[C@@H]3[C@@H](CCC(=O)N3Cc3ccccc3)C2)cc1` came in with a melting point of 118 to 119 °C.

As to `N#Cc1c(Cl)nc(Cl)nc1N1CCSCC1`, the melting point was 180 °C.

In the case of `NC(=O)c1nc(-c2ccncc2)nc2c1NC(=O)CN2c1ccccc1`, the melting point was in the range of 298 to 304 °C.

As for `COc1c(F)cc(CCC(=O)O)cc1F`, the melting point fell in the range of 72 to 73 °C.

For the compound `CC(=O)c1cc(O)c(-c2ccccc2)cc1O`, the melting point is 169 °C.

Turning to `CN(C(=O)c1ccc(-n2cc3ccccc3n2)cc1)[C@@H]1CCN(C(=O)OC(C)(C)C)C1`, the melting point was in the range of 133 to 134 °C.

Take `COc1ccc(Nc2cccc(Cl)n2)cc1`: the melting point was 74 to 76 °C.

For the compound `CC(NC(=O)c1ccc(C2(C)C(=O)Nc3cc(Cl)cc(Cl)c3C2=O)cc1)c1ccccc1` (configuration not stated), the melting point lay within 110 to 115 °C.

Turning to `CCCOc1ccc(F)c2c(=O)c(-c3ccc(OC)cc3)c(CN3CCN(c4ccccn4)CC3)[nH]c12`, the melting point was 211 to 212 °C.

`C[C@H](Nc1nc(C(N)=O)nc(Cl)c1-c1c(F)cc(F)cc1F)C(F)(F)F` registered a melting point of 157 to 162 °C.

With `CNc1c(F)cc2c(=O)c(C(=O)O)cn(-c3ccc(F)c(N)n3)c2c1Cl`, the melting point lay in the range of 233 to 238 °C.

On to `CSC(Nc1cc(C(F)(F)F)cc(C(F)(F)F)c1)=C(C#N)S(=O)(=O)C(C)C`, for which the melting point was 130 to 133 °C.

For the compound `Cc1ccc(N2C(=O)c3ccccc3NC2c2ccc(=O)[nH]c2)cc1C(F)(F)F` (configuration not stated), the melting point was in the range of 250 to 251 °C.

`COc1ccc(C2(c3ccc(OC)cc3)CC2(Cl)Cl)cc1` displayed a melting point of 138 °C.

Compound `O=C(Cn1c(-c2cccnc2)ncc(NC(=O)OCc2ccccc2)c1=O)NC(Cc1ccccc1)C(=O)C(F)(F)F` (configuration not stated) yielded a melting point of 88 to 91 °C.

As to `Cc1cc(Cl)ccc1OCC(=O)N1CCSC1C(=O)O` (configuration not stated), the melting point is 147 to 148 °C.

`CCCCC(C(=O)O)c1cccc(Oc2ccccc2C)c1O` (configuration not stated) showed a melting point of 83 to 84 °C.

Consider `CN(C)C(=O)n1c(CN2CCN(c3ccccn3)CC2)nc2ccccc21`, for which the melting point is 174 to 176 °C.

As for `C=Cc1cnc2c(NC(=O)c3c(Cl)cccc3Cl)cccc2c1CCl`, the melting point was 184 to 186 °C.

Turning to `CN(C(=O)OC(C)(C)C)c1cc(Oc2ccc(-c3nnn[nH]3)cc2)ccc1[N+](=O)[O-]`, the melting point fell in the range of 81 to 84 °C.

On to `COc1ccc(Nc2c([N+](=O)[O-])cc([N+](=O)[O-])c(Cl)c2C(=O)O)cc1`, for which the melting point was 241 to 245 °C.

The compound `CCc1cc2c(s1)SCc1cc(=O)n(-c3ccc(Cl)cc3)nc1-2` came in with a melting point of 161 to 163 °C.

On to `C#CC1(OC(C)=O)CCC2C3CC(=C)C4=CC(=O)CCC4(C)C3CCC21C` (configuration not stated), for which the melting point fell in the range of 158 to 160 °C.

`Cn1cc(C(=O)O)c2cccc(F)c21`: the melting point lay within 225 to 227 °C.

`CC1(CNC(=O)C(F)(F)F)CN(c2cc3c(cc2F)c(=O)c(C(=O)O)cn3C2CC2)C1` had a melting point of 265 to 272 °C.

In turn, `COc1ccc(C=O)nc1I` came in with a melting point of 118 to 121 °C.

`COc1ncnc(-c2cc(N)c(C#N)cc2F)c1Cl`: the melting point was 186 to 189 °C.

The compound `CN1CCN(CCCCC(=O)N2c3ccccc3C(=O)Nc3cccnc32)CC1` showed a melting point of 151 to 153 °C.

`CCC(=O)N1CCN(C(=O)COC2c3ccccc3C(=O)N2c2ccc3ccc(OC)nc3n2)CC1` (configuration not stated): the melting point turned out to be 160 °C.

Turning to `Fc1ccc(-c2nc(-c3ccccn3)cs2)cc1`, the melting point was in the range of 140 to 144 °C.

`Cc1cn(Cc2ccc(F)cc2)cc1C(=O)CC(=O)C(=O)O` came in with a melting point of 162 to 163 °C.

`CN1CCN(c2cc([N+](=O)[O-])ccc2Br)CC1`: the melting point lay within 100 to 103 °C.

Compound `NS(=O)(=O)c1ccc(-c2cc(-c3nc(-c4ccc(Cl)cc4)cc(C(F)(F)F)n3)ccn2)s1` came in with a melting point of 290 °C.

`CC1CCC(Nc2ccc(Br)cc2)c2ncc(C(=O)O)c(=O)n21` (single isomer, unassigned; (-)): the melting point fell in the range of 210 to 211 °C.

As for `CSc1ccc(N=C=O)cc1C(F)(F)F`, the melting point came to 40 °C.

`OCCC(CCO)c1ccccn1` returned a melting point of 44 °C.

`COC(=O)c1cc2cc(C(=O)c3cccc(CC#N)c3)sc2s1` had a melting point of 184 °C.

With `CCOc1ccc(-c2cc(C)cn2-c2ccc(S(N)(=O)=O)cc2)cc1`, the melting point lay within 135 to 139 °C.
